Measured values as given in ChEMBL document CHEMBL1201862, “PubChem BioAssay data set” (2004).
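Cultured in 96-well plates, cells were exposed to test compound for 48 hours across five concentrations. The concentration for 50% growth inhibition is given as GI50.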 Activity calls are given as the source filed them. Rule as the data show it: active = GI50 up to about 1.1 µM and inactive = higher.

Assays:
Assay in all cases: NCI-60 cell line screen, 48 h
A549 = system: A549
ACHN = system: ACHN
DU-145 = system: DU-145
HCC 2998 = system: HCC 2998
HCT-15 = system: HCT-15
HOP-92 = system: HOP-92
K562 = system: K562
KM12 = system: KM12
MCF7 = system: MCF7
NCI-H226 = system: NCI-H226
OVCAR-4 = system: OVCAR-4
OVCAR-8 = system: OVCAR-8
RPMI-8226 = system: RPMI-8226
SF-539 = system: SF-539
SK-MEL-5 = system: SK-MEL-5
SK-OV-3 = system: SK-OV-3
SN12C = system: SN12C
T47D = system: T47D
UACC-257 = system: UACC-257

Row | SMILES | GI50 (A549) | GI50 (ACHN) | GI50 (DU-145) | GI50 (HCC 2998) | GI50 (HCT-15) [µM] | GI50 (HOP-92) | GI50 (K562) | GI50 (KM12) | GI50 (MCF7) | GI50 (NCI-H226) | GI50 (OVCAR-4) | GI50 (OVCAR-8) | GI50 (RPMI-8226) | GI50 (SF-539) | GI50 (SK-MEL-5) | GI50 (SK-OV-3) | GI50 (SN12C) | GI50 (T47D) | GI50 (UACC-257)
1 | CCOC(=O)c1ccc(-c2cccs2)n1C | > 100 µM (inactive) | > 100 µM (inactive) | > 100 µM (inactive) | > 100 µM (inactive) | 51.5 | > 43.1 µM (inactive) | 60.5 µM (inactive) | > 100 µM (inactive) | > 96.4 µM (inactive) | > 100 µM (inactive) | 79.8 µM (inactive) | > 100 µM (inactive) | 84.5 µM (inactive) | > 100 µM (inactive) | 33.7 µM (inactive) | > 87.3 µM (inactive) | > 100 µM (inactive) | 19 µM (inactive) | > 79.1 µM (inactive)
2 | CC(=O)N(C)C(C(=O)N1CC(C)CC1C(=O)N(C)C1C(=O)NC(CC(C)C)C(=O)N2CC(C)CC2C(=O)NC(CC(C)C)C(=O)N(C)C(C(C)C)C(=O)N2CCCC2C(=O)N(C)C(CC(C)C)C(=O)NCC(=O)OC1C)C(C)C (stereo not drawn) | > 100 µM (inactive) | > 100 µM (inactive) | > 100 µM (inactive) | > 100 µM (inactive) | > 100 | > 100 µM (inactive) | > 100 µM (inactive) | > 100 µM (inactive) | > 100 µM (inactive) | > 100 µM (inactive) | > 100 µM (inactive) | > 100 µM (inactive) | > 100 µM (inactive) | > 100 µM (inactive) | > 100 µM (inactive) | > 100 µM (inactive) | > 100 µM (inactive) | > 100 µM (inactive) | > 100 µM (inactive)
3 | O/N=C1\C=Cc2nn(-c3ccccc3)nc2\C1=N/O | 3.05 µM (inactive) | 2.3 µM (inactive) | 1.07 µM (active) | 14.5 µM (inactive) | 4.38 | 8.26 µM (inactive) | 0.695 µM (active) | 4.55 µM (inactive) | 2.69 µM (inactive) | 2.1 µM (inactive) | 5.36 µM (inactive) | 3.01 µM (inactive) | 3.71 µM (inactive) | 4.22 µM (inactive) | 2.24 µM (inactive) | 6.35 µM (inactive) | 7.24 µM (inactive) | 5.47 µM (inactive) | 3.11 µM (inactive)
4 | Cc1c(C(=O)O)n2cnnc2c2ccccc12 | > 100 µM (inactive) | > 100 µM (inactive) | > 100 µM (inactive) | > 100 µM (inactive) | > 100 | > 100 µM (inactive) | > 100 µM (inactive) | > 100 µM (inactive) | > 100 µM (inactive) | > 100 µM (inactive) | > 100 µM (inactive) | > 100 µM (inactive) | > 100 µM (inactive) | > 100 µM (inactive) | > 100 µM (inactive) | > 100 µM (inactive) | > 100 µM (inactive) | > 100 µM (inactive) | > 100 µM (inactive)
5 | Cc1cccc2c(N)c3cccc(C(=O)NCC[N+](C)(C)Cc4c([N+](=O)[O-])ncn4C)c3nc12 | 3.78 µM (inactive) | 10.8 µM (inactive) | 46.8 µM (inactive) | 6.73 µM (inactive) | 27 | 40.6 µM (inactive) | 11.1 µM (inactive) | 29 µM (inactive) | 12.8 µM (inactive) | 29.2 µM (inactive) | > 48.2 µM (inactive) | 26.3 µM (inactive) | 31.4 µM (inactive) | 11.5 µM (inactive) | 26.1 µM (inactive) | 31.6 µM (inactive) | 6.93 µM (inactive) | 67.8 µM (inactive) | 49.9 µM (inactive)
6 | S=C1Cc2c(-c3ccc(Cl)cc3)cc(-c3ccccc3)nc2-c2ccccc2N1 | 8.73 µM (inactive) | 7.82 µM (inactive) | 22 µM (inactive) | 23.9 µM (inactive) | 21.1 | 8.04 µM (inactive) | > 100 µM (inactive) | 4.85 µM (inactive) | 17.1 µM (inactive) | 13.1 µM (inactive) | 3.08 µM (inactive) | 2.86 µM (inactive) | 37.3 µM (inactive) | 4.01 µM (inactive) | 16 µM (inactive) | 10.6 µM (inactive) | 13.5 µM (inactive) | 19.8 µM (inactive) | 14.1 µM (inactive)
7 | CCOC(=O)Cn1nnc2cc(Nc3nc4ccccc4nc3C(=O)OCC)ccc21 | > 100 µM (inactive) | > 100 µM (inactive) | > 100 µM (inactive) | > 100 µM (inactive) | > 100 | 20.9 µM (inactive) | > 100 µM (inactive) | > 100 µM (inactive) | > 100 µM (inactive) | > 100 µM (inactive) | > 100 µM (inactive) | 49.7 µM (inactive) | > 100 µM (inactive) | 17.3 µM (inactive) | > 100 µM (inactive) | 50.2 µM (inactive) | > 100 µM (inactive) | > 100 µM (inactive) | > 100 µM (inactive)
